Reference: patent US9615576B2, “Pesticidal compositions and processes related thereto” (Dow AgroSciences LLC, priority 2011, dated 2017)
Like-named read-outs stand apart in the source and are kept apart here.

Experiments:
[1] = system: Beet Armyworm (BAW) (Spodoptera exigua); experiment: Bioassays on Beet Armyworm (BAW), 128-well diet tray assay; format: in vivo; details: 168 h, read-out: BAW Rating (% mortality)
Outline: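 Second-instar larvae (1–5 per well) on artificial diet surface-treated with 50 μg/cm^2 compound applied in 90:10 acetone-water and dried; eight wells per compound. Held 5–7 days at 25° C., 14:10 light-dark. Percent mortality scored per well and averaged over eight wells.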

[2] = system: Corn Earworm (CEW) (Helicoverpa zea); experiment: Bioassays on Corn Earworm (CEW), 128-well diet tray assay; format: in vivo; details: 168 h, read-out: CEW Rating (% mortality)
Outline: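 Second-instar larvae (one to five per well) placed on artificial diet treated with 50 μg/cm^2 compound in 90:10 acetone-water, dried; eight wells per compound. Held at 25° C, 14:10 light-dark, five to seven days; percent mortality averaged over wells.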

[3] = 50 μg/cm^2 test compound on artificial diet, second instar larvae, 25° C., five to seven days, average of eight wells

Row | SMILES | mortality at 50 µg/cm2 [1, 3] [%] | mortality at 50 µg/cm2 [2, 3] [%] | mortality at 50 µg/cm2 [1] [%] | mortality at 50 µg/cm2 [2] [%]
1 | O=C(Cn1ncc2cc(/C=C/C(c3cc(Cl)c(F)c(Cl)c3)C(F)(F)F)ccc2c1=O)NCC(F)(F)F (stereo not drawn) [BC14, (E)-2-(6-(3-(3,5-dichloro-4-fluorophenyl)-4,4,4-trifluorobut-1-en-1-yl)-1-oxophthalazin-2(1H)-yl)-N-(2,2,2-trifluoroethyl)acetamide] | 50 to 100 | 0 | – | –
2 | CC(=O)NCc1ccc(/C=C/C(c2cc(Cl)cc(Cl)c2)C(F)(F)F)cc1 (stereo not drawn) [CC1, (E)-N-(4-(3-(3,5-dichlorophenyl)-4,4,4-trifluorobut-1-enyl)benzyl)acetamide] | 0 | 0 | – | –
3 | O=C(NCc1ccc(/C=C/C(c2cc(Cl)cc(Cl)c2)C(F)(F)F)cc1)C1CC1 (stereo not drawn) [CC2] | 50 to 100 | 50 to 100 | – | –
4 | O=C(CC(F)(F)F)NCc1ccc(/C=C/C(c2cc(Cl)cc(Cl)c2)C(F)(F)F)cc1 (stereo not drawn) [CC3] | 50 to 100 | 50 to 100 | – | –
5 | CCC(=O)NCc1ccc(/C=C/C(c2cc(Cl)cc(Cl)c2)C(F)(F)F)cc1 (stereo not drawn) [CC4] | 50 to 100 | 0 to 50 | – | –
6 | O=C(NCc1ccc(/C=C/C(c2cc(Cl)c(Cl)c(Cl)c2)C(F)(F)F)cc1)C1CC1 (stereo not drawn) [CC5] | 50 to 100 | 50 to 100 | – | –
7 | O=C(CC(F)(F)F)NCc1ccc(/C=C/C(c2cc(Cl)c(Cl)c(Cl)c2)C(F)(F)F)cc1 (stereo not drawn) [CC6] | 50 to 100 | 50 to 100 | – | –
8 | CC(=O)NCc1ccc(/C=C/C(c2cc(Cl)cc(Cl)c2)C(F)(F)F)cc1Cl (stereo not drawn) [CC7, (E)-N-(2-chloro-4-(3-(3,5-dichlorophenyl)-4,4,4-trifluorobut-1-en-1-yl)benzyl)acetamide] | 50 to 100 | 50 to 100 | – | –
9 | O=C(NCc1ccc(/C=C/C(c2cc(Cl)cc(Cl)c2)C(F)(F)F)cc1Cl)C1CC1 (stereo not drawn) [CC8] | 50 to 100 | 50 to 100 | – | –
10 | O=C(CC(F)(F)F)NCc1ccc(/C=C/C(c2cc(Cl)cc(Cl)c2)C(F)(F)F)cc1Cl (stereo not drawn) [CC9] | 50 to 100 | 50 to 100 | – | –
11 | O=C(CC(F)(F)F)NCc1ccc(/C=C/C(c2cc(Cl)c(Cl)c(Cl)c2)C(F)(F)F)cc1Cl (stereo not drawn) [CC10] | 50 to 100 | 50 to 100 | – | –
12 | O=C(NCc1ccc(/C=C/C(c2cc(Cl)c(Cl)c(Cl)c2)C(F)(F)F)cc1Cl)C1CC1 (stereo not drawn) [CC11] | 50 to 100 | 50 to 100 | – | –
13 | CC(C)(C)C(=O)NCc1ccc(/C=C/C(c2cc(Cl)c(Cl)c(Cl)c2)C(F)(F)F)cc1Cl (stereo not drawn) [CC12] | 0 | 0 | – | –
14 | O=C(NCc1ccc(/C=C/C(c2cc(Cl)c(Cl)c(Cl)c2)C(F)(F)F)cc1)c1ccnc(Cl)c1 (stereo not drawn) [CC13] | 50 to 100 | 50 to 100 | – | –
15 | O=C(Cc1ccc(Cl)nc1)NCc1ccc(/C=C/C(c2cc(Cl)c(Cl)c(Cl)c2)C(F)(F)F)cc1Cl (stereo not drawn) [CC14] | 50 to 100 | 0 | – | –
16 | O=C(NCc1ccc(/C=C/C(c2cc(Cl)c(F)c(Cl)c2)C(F)(F)F)cc1Cl)C1CC1 (stereo not drawn) [CC15] | 50 to 100 | 50 to 100 | – | –
17 | O=C(CC(F)(F)F)NCc1ccc(/C=C/C(c2cc(Cl)c(F)c(Cl)c2)C(F)(F)F)cc1 (stereo not drawn) [CC16] | 50 to 100 | 50 to 100 | – | –
18 | O=C(NCc1ccc(/C=C/C(c2ccc(Cl)c(Cl)c2)C(F)(F)F)cc1Cl)C1CC1 (stereo not drawn) [CC17] | 50 to 100 | 50 to 100 | – | –
19 | O=C(CC(F)(F)F)NCc1ccc(/C=C/C(c2ccc(Cl)c(Cl)c2)C(F)(F)F)cc1Cl (stereo not drawn) [CC18] | 50 to 100 | 50 to 100 | – | –
20 | CSCCC(=O)NCc1ccc(/C=C/C(c2cc(Cl)c(Cl)c(Cl)c2)C(F)(F)F)cc1Cl (stereo not drawn) [CC19] | 50 to 100 | 50 to 100 | – | –
21 | FC(F)(F)C(/C=C/c1ccc(CNC(=S)C2CC2)c(Cl)c1)c1cc(Cl)c(Cl)c(Cl)c1 (stereo not drawn) [CC20] | 50 to 100 | 50 to 100 | – | –
22 | O=C(NCc1ccc(/C=C/C(c2cc(Cl)cc(Cl)c2)C(F)(F)F)cc1C(F)(F)F)C1CC1 (stereo not drawn) [CC21] | 50 to 100 | 50 to 100 | – | –
23 | O=C(NCc1ccc(/C=C/C(c2cc(Cl)c(Cl)c(Cl)c2)C(F)(F)F)cc1C(F)(F)F)C1CC1 (stereo not drawn) [CC22] | 50 to 100 | 50 to 100 | – | –

Row | SMILES | mortality at 50 µg/cm2 [1, 3] [%] | mortality at 50 µg/cm2 [2, 3] [%] | mortality at 50 µg/cm2 [1] [%] | mortality at 50 µg/cm2 [2] [%]
24 | O=C(NCc1ccc(/C=C/C(c2cc(Cl)c(Cl)c(Cl)c2)C(F)(F)F)cc1C(F)(F)F)c1cccnc1 (stereo not drawn) [CC23] | 50 to 100 | 50 to 100 | – | –
25 | O=C(CC(F)(F)F)NCc1ccc(/C=C/C(c2cc(Cl)c(Cl)c(Cl)c2)C(F)(F)F)cc1C(F)(F)F (stereo not drawn) [CC24] | 50 to 100 | 50 to 100 | – | –
26 | O=C(CC(F)(F)F)NCc1ccc(/C=C/C(c2cc(Cl)c(Cl)c(Cl)c2)C(F)(F)F)cc1Br (stereo not drawn) [CC25] | 50 to 100 | 50 to 100 | – | –
27 | O=C(NCc1ccc(/C=C/C(c2cc(Cl)c(Cl)c(Cl)c2)C(F)(F)F)cc1Br)C1CC1 (stereo not drawn) [CC26] | 50 to 100 | 0 | – | –
28 | O=C(CC(F)(F)F)NCc1ccc(/C=C/C(c2cc(Cl)c(Cl)c(Cl)c2)C(F)(F)F)cc1F (stereo not drawn) [CC27] | 50 to 100 | 50 to 100 | – | –
29 | O=C(NCc1ccc(/C=C/C(c2cc(Cl)c(Cl)c(Cl)c2)C(F)(F)F)cc1F)C1CC1 (stereo not drawn) [CC28] | 50 to 100 | 50 to 100 | – | –
30 | O=C(C1CC1)N(Cc1ccccn1)Cc1ccc(/C=C/C(c2cc(Cl)c(Cl)c(Cl)c2)C(F)(F)F)cc1C(F)(F)F (stereo not drawn) [CC29, (E)-N-(pyridin-2-ylmethyl)-N-(4-(4,4,4-trifluoro-3-(3,4,5-trichlorophenyl)but-1-enyl)-2-(trifluoromethyl)benzyl)cyclopropanecarboxamide] | 50 to 100 | 50 to 100 | – | –
31 | CS(=O)(=O)CCC(=O)NCc1ccc(/C=C/C(c2cc(Cl)c(Cl)c(Cl)c2)C(F)(F)F)cc1Cl (stereo not drawn) [CC30, (E)-N-(2-chloro-4-(4,4,4-trifluoro-3-(3,4,5-trichlorophenyl)but-1-en-1-yl)benzyl)-3-(methylsulfonyl)propanamide] | 50 to 100 | 50 to 100 | – | –
32 | CCNC(=O)NCc1ccc(/C=C/C(c2cc(Cl)cc(Cl)c2)C(F)(F)F)cc1Cl (stereo not drawn) [CC31, (E)-1-(2-chloro-4-(3-(3,5-dichlorophenyl)-4,4,4-trifluorobut-1-en-1-yl)benzyl)-3-ethylurea] | 0 to 50 | 0 | – | –
33 | CCNC(=O)NCc1ccc(/C=C/C(c2cc(Cl)c(Cl)c(Cl)c2)C(F)(F)F)cc1C(F)(F)F (stereo not drawn) [CC32] | 50 to 100 | 50 to 100 | – | –
34 | CCNC(=O)NCc1ccc(/C=C/C(c2cc(Cl)c(Cl)c(Cl)c2)C(F)(F)F)cc1Br (stereo not drawn) [CC33] | 50 to 100 | 50 to 100 | – | –
35 | O=C(NCc1ccc(/C=C/C(c2cc(Cl)c(Cl)c(Cl)c2)C(F)(F)F)cc1Cl)N1CCOCC1 (stereo not drawn) [CC34] | 50 to 100 | 50 to 100 | – | –
36 | O=C(NCc1ccc(/C=C/C(c2cc(Cl)c(Cl)c(Cl)c2)C(F)(F)F)cc1Cl)Nc1ccccn1 (stereo not drawn) [CC35] | 0 | 0 | – | –
37 | CN(C)C(=O)NCc1ccc(/C=C/C(c2cc(Cl)c(Cl)c(Cl)c2)C(F)(F)F)cc1Cl (stereo not drawn) [CC36, (E)-3-(2-chloro-4-(4,4,4-trifluoro-3-(3,4,5-trichlorophenyl)but-1-en-1-yl)benzyl)-1,1-dimethylurea] | 50 to 100 | 50 to 100 | – | –
38 | CCNC(=S)NCc1ccc(/C=C/C(c2cc(Cl)c(Cl)c(Cl)c2)C(F)(F)F)cc1Cl (stereo not drawn) [CC37, (E)-1-(2-chloro-4-(4,4,4-trifluoro-3-(3,4,5-trichlorophenyl)but-1-en-1-yl)benzyl)-3-ethylthiourea] | 50 to 100 | 50 to 100 | – | –
39 | C=CCNC(=S)NCc1ccc(/C=C/C(c2cc(Cl)c(Cl)c(Cl)c2)C(F)(F)F)cc1Cl (stereo not drawn) [CC38] | 50 to 100 | 50 to 100 | – | –
40 | CC(C)(C)OC(=O)NCc1ccc(/C=C/C(c2cc(Cl)c(Cl)c(Cl)c2)C(F)(F)F)cc1Cl (stereo not drawn) [CC39] | 0 | 0 | – | –
41 | O=C(NCc1ccc(/C=C/C(c2cc(Cl)c(Cl)c(Cl)c2)C(F)(F)F)cc1Cl)Oc1ccccc1Cl (stereo not drawn) [CC40] | – | – | 0 | 50 to 100
42 | COC(=O)C(=O)NCc1ccc(/C=C/C(c2cc(Cl)c(Cl)c(Cl)c2)C(F)(F)F)cc1Cl (stereo not drawn) [CC41, (E)-methyl 2-((2-chloro-4-(4,4,4-trifluoro-3-(3,4,5-trichlorophenyl)but-1-en-1-yl)benzyl)amino)-2-oxoacetate] | 0 | 0 | – | –
43 | O=C(NCc1ccc(/C=C/C(c2cc(Cl)c(Cl)c(Cl)c2)C(F)(F)F)cc1Cl)C(=O)NCC(F)(F)F (stereo not drawn) [CC42, (E)-N^1-(2-chloro-4-(4,4,4-trifluoro-3-(3,4,5-trichlorophenyl)but-1-en-1-yl)benzyl)-N^2-(2,2,2-trifluoroethyl)oxalamide] | 0 | 0 | – | –
44 | FC(F)(F)C(/C=C/c1ccc(CNc2ccccn2)c(Cl)c1)c1cc(Cl)c(Cl)c(Cl)c1 (stereo not drawn) [CC43, (E)-N-(2-chloro-4-(4,4,4-trifluoro-3-(3,4,5-trichlorophenyl)but-1-en-1-yl)benzyl)pyridin-2-amine] | 50 to 100 | 0 to 50 | – | –
45 | O=C(CC(F)(F)F)NCc1ncc(/C=C/C(c2cc(Cl)c(Cl)c(Cl)c2)C(F)(F)F)cc1Cl (stereo not drawn) [CC44, (E)-N-((3-chloro-5-(4,4,4-trifluoro-3-(3,4,5-trichlorophenyl)-but-1-en-1-yl)pyridin-2-yl)methyl)-3,3,3-trifluoropropanamide] | 50 to 100 | 50 to 100 | – | –
